Laboratory results published in patent publication US20220073613A1, “ACTIVATABLE MASKED ANTI-CTLA4 BINDING PROTEINS” (Xilio Development, Inc., priority 2018, published 2022).
Entries after “also recorded” stand apart in the source; their conditions may differ.

Key:
tumor conditioned media = test: AMSP-MS kinetic analysis of AK10 peptides, patient tumor; format: biochemical, human
Method: (§1) Ten sequences (AK10) shown in Table 19 were analyzed via AMSP-MS. These sequences were slightly modified from the original sequences to generate mass spectrometry-compatible peptides (in some cases adding basic residues to add positive charge) and spacing residues (GG) to produce longer ˜14-mer peptides. The peptides were prepared at a 500 nM final concentration in the AMSP-MS reaction. The AK10 library was also separately analyzed by LC-MS/MS for chemical validation of the peptide species. The AMSP-MS analysis was performed under standard substrate specificity profiling conditions, sampling time points during the reaction incubation at 0, 15, 60, 240 and 1200 min. Peptides were quantified by mass spectrometric label-free quantitation from the MS1 precursor ion peak areas for each peptide species. Enzyme progress curves were modeled in GraphPad Prism software v 8.0 and data were fitted using non-linear least squares fitting to the first order kinetic equation: where Y=percent product formation, Kobs is the observed rate, and t=time. In Michaelis-Menten kinetics, the observed rate Kobs is a function of the enzyme concentration and catalytic efficiency (kcat/KM). In this analysis of an enzyme mixture, Kobs was used to rank product cleavages.

9D9 antibody = test: Surface Plasmon Resonance of masking peptide binding to 9D9 antibody; settings: SPR, reference channel
Method: FIGS. 1A and 1B is a series of graphs showing in vitro analyses of anti-CTLA4 antibody occlusion by a masking peptide. Surface plasmon resonance (SPR) was performed to examine A) kinetics and B) affinity between 9D9 antibody (ligand) and masking peptide […] (analyte). Analytes were run in increasing concentrations of 2-fold serial dilutions from 0.1 to 50 μM at 37° C. Reference-subtracted response was plotted. SPR was performed three times and representative traces from one experiment are shown.
Surface Plasmon Resonance was performed on a GE Biacore T200 instrument at 37° C. The 9D9 antibody and isotype control (reference channel) were coupled at 100 RU immobilization level to CM5 chip (GE Healthcare). Peptides were synthesized and diluted into HBS-EP+ running buffer (GE Healthcare). The binding data were analyzed using Biacore Evaluation Software, version 3.0.

NAT conditioned media = test: AMSP-MS kinetic analysis of AK10 peptides, NAT; format: biochemical, human
Method: as §1

MB49 tumors = test: MB49 murine bladder tumor model, efficacy and pharmacodynamics; set-up: species or system C57/BL6-huCTLA4 mice; settings: mouse, in vivo
Method: Efficacy and pharmacodynamics (PD) of anti-CTLA4 antibodies were assessed using the MB49 murine bladder tumor model. Efficacy was assessed by administering each test antibody (RSV-m control antibody, ipilimumab, Antibody 2-6, Antibody 2-14, and Antibody 2-15) and then assessing tumor volume and body weight. The anti-RSV control antibody contains S239D and I332E mutations (RSV-m control antibody). Peripheral immunophenotyping was also carried out on day 5, which assessed the percentage of CD4+Ki67+ cells and the percentage of CD4+ICOS+ cells in the peripheral blood on day 5 following administration. As used herein, dosing in mg/kg is also referred to as “mpk.” MB49 cells were inoculated subcutaneously into C57/BL6-huCTLA4 mice. Treatment started when the tumors reached approximately 350 mm^3. […]
Pharmacodynamics is assessed by administering antibody to each of five cohorts of mice, with dosing (mg/kg) as shown in Table 16. Immunophenotyping among other readouts are performed in the tumor, liver, spleen, and blood. T cells are assessed by measuring Foxp3+CD25+ cells as a percentage of CD4+ cells, and CD8+ cells are measured as a percentage of CD45+ cells. Cleavage and drug levels in tumors, liver, kidney, spleen, and plasma is also assessed.

MC38 conditioned media = test: AMSP-MS kinetic analysis of AK10 peptides, MC38; format: biochemical, mouse; settings: MC38 serum-free conditioned media
Method: as §1

RGGVPLSLYSGGGK [AK-03]
ranking as substrate (relative efficiency) (tumor conditioned media): top cleavages

CNLIVEGHC
binding to isotype control antibody (9D9 antibody): did not bind

RGGDSGGFMLTGGK [AK-05]
ranking as substrate (relative efficiency) (NAT conditioned media): weaker substrates

ipilimumab [reference compound]
Regulatory T cell depletion and CD8+ T cell activation in the tumor microenvironment (MB49 tumors): not

RGGMPYDLYHPGGK [AK-04]
ranking as substrate (relative efficiency) (NAT conditioned media): better performing substrates
ranking as substrate (relative efficiency) (tumor conditioned media): top cleavages

LSGRSNAMPYDLYHP [AK-09]
ranking as substrate (relative efficiency) (MC38 conditioned media): best substrates
ranking as substrate (relative efficiency) (NAT conditioned media): better performing substrates

MPYDLYHPRQARVVG [AK-10]
ranking as substrate (relative efficiency) (MC38 conditioned media): best substrates
ranking as substrate (relative efficiency) (NAT conditioned media): better performing substrates; also recorded: most efficient NAT substrate
